Results from patent US11780841B2, “3,6-methano-1H-pyrrolo[3,2-b]pyridine and 3,6-methano-1H-pyrrolo[3,2-c]pyridine compounds and medicaments using same” (priority 2018, dated 2023).

test system: recombinant rabies virus 1088 strain expressing Gaussia Luciferase (GLuc) (1088/GLuc); type: cell-based; conditions: read-out: Anti-rabies activity

SMILES	IC50 [µM]
Cc1cccc(CNC(=O)[C@@]23C[C@@H]4CN(CC(C)C)[C@@H]([C@@H]4CN2)[C@H]3Cc2ccccc2)c1 (relative stereo) [IF-15]	10 to 30
O=C(NCc1ccccc1)[C@]12NC[C@H]3C[C@H]1CN(Cc1ccccc1)[C@H]2[C@@H]3Cc1cccc2ccccc12 [IB-777]	< 5
O=C(O)CC[C@@H]1[C@H]2CN[C@@]3(C(=O)NCc4cccc5ccccc45)[C@@H](C2)CN(Cc2ccc(F)cc2)[C@@H]13 [IB-390]	10 to 30
N=C(N)NCCC[C@@H]1[C@@H]2[C@@H]3CN[C@@]1(C(=O)NCc1cccc4ccccc14)C[C@@H]3CN2Cc1ccc(F)cc1 [IF-297]	10 to 30
CC(C)CCN1C[C@@H]2C[C@@H]3CN[C@]2(C(=O)NCc2cccc4ccccc24)[C@@H]1[C@@H]3CO [IB-426]	< 5
O=C(O)CCN1CC2CC3CNC2(C(=O)NCc2ccc(O)cc2)C1C3Cc1cccc2ccccc12 (centres unmarked) [IB-516]	10 to 30
Cc1ccc(CN2C[C@@H]3C[C@@H]4CN[C@]3(C(=O)NCc3ccccc3)[C@@H]2[C@@H]4CC(C)C)cc1 [IB-867]	5 to 10
CC(C)CC[C@@H]1[C@H]2CN[C@@]3(C(=O)NCCO)[C@@H](C2)CN(Cc2ccc(F)cc2)[C@@H]13 [IB-668]	< 5
CC(C)CNC(=O)[C@@]12C[C@@H]3CN(Cc4ccc(F)cc4)[C@@H]([C@@H]3CN1)[C@H]2CCc1ccccc1 [IF-652]	< 5
CC(C)C[C@@H]1[C@@H]2[C@@H]3CN[C@@]1(C(=O)NCCC(N)=O)C[C@@H]3CN2CCc1ccccc1 [IF-699]	10 to 30
O=C(NCc1ccc(O)cc1)[C@@]12C[C@@H]3CN(Cc4ccccc4)[C@@H]([C@@H]3CN1)[C@H]2Cc1ccccc1 [IF-494]	10 to 30
CC(C)C[C@@H]1[C@@H]2[C@@H]3CN[C@@]1(C(=O)NCc1ccc4ccccc4c1)C[C@@H]3CN2Cc1ccccc1 [IF-854]	5 to 10
CC(C)CC[C@@H]1[C@H]2CN[C@@]3(C(=O)NCCCNC(=N)N)[C@@H](C2)CN(CCc2ccccc2)[C@@H]13 [IB-346]	10 to 30
CC(C)C[C@@H]1[C@@H]2[C@@H]3CN[C@@]1(C(=O)NCc1ccc(Cl)cc1)C[C@@H]3CN2CC(C)C [IF-846]	10 to 30
CC(C)CC1C2CNC3(C(=O)NCCC(N)=O)C(C2)CN(Cc2cccc4ccccc24)C13 (centres unmarked) [IB-520]	< 5
CC(C)CCN1C[C@H]2C[C@]3(C(=O)NCc4ccc(O)cc4)NC[C@H]2[C@H]1[C@H]3CCC(=O)O [IF-445]	10 to 30
CC(C)CNC(=O)[C@@]12C[C@@H]3CN(CCc4ccccc4)[C@@H]([C@@H]3CN1)[C@H]2Cc1ccccc1 [IF-641]	< 5
N=C(N)NCCC[C@@H]1[C@H]2CN[C@@]3(C(=O)NCc4ccc(F)cc4)[C@@H](C2)CN(Cc2ccc(O)cc2)[C@@H]13 [IB-207]	10 to 30
CCCCCCNC(=O)[C@@]12C[C@@H]3CN(CC(C)C)[C@@H]([C@@H]3CN1)[C@H]2CC(C)C (relative stereo) [IF-569]	10 to 30
CC(C)CC[C@@H]1[C@@H]2[C@@H]3CN[C@@]1(C(=O)NCc1ccccc1)C[C@@H]3CN2CC(C)C [IF-675]	< 5
CC(C)CN1C[C@@H]2C[C@@H]3CN[C@]2(C(=O)NCc2ccccc2)[C@@H]1[C@@H]3Cc1ccc(O)cc1 [IB-783]	10 to 30
NC(=O)CN1C[C@H]2C[C@]3(C(=O)NCCc4ccccc4)NC[C@H]2[C@H]1[C@H]3Cc1cccc2ccccc12 (relative stereo) [IF-90]	10 to 30
CC(C)CNC(=O)[C@]12NC[C@H]3C[C@H]1CN(CCC(=O)O)[C@H]2[C@@H]3CO [IB-431]	10 to 30
CC(C)CCNC(=O)[C@@]12C[C@@H]3CN(CC4CCCCC4)[C@@H]([C@@H]3CN1)[C@H]2Cc1ccccc1 [IF-658]	< 5

SMILES	IC50 [µM]
CC(C)CCNC(=O)[C@]12NC[C@H]3C[C@H]1CN(Cc1ccccc1)[C@H]2[C@@H]3Cc1ccc(O)cc1 [IB-678]	< 5
CC(C)C[C@@H]1[C@@H]2CN[C@@]3(C(=O)NCCc4ccccc4)[C@@H](C2)CN(Cc2ccccc2)[C@@H]13 (relative stereo) [IB-12]	10 to 30
CC(C)C[C@@H]1[C@H]2CN[C@@]3(C(=O)NCc4ccc(O)cc4)[C@@H](C2)CN(Cc2ccc(N(C)C)cc2)[C@@H]13 (relative stereo) [IB-892]	10 to 30
CC(C)CCNC(=O)[C@@]12C[C@@H]3CN(CCCNC(=N)N)[C@@H]([C@@H]3CN1)[C@H]2Cc1cccc2ccccc12 [IF-356]	10 to 30
NC(=O)CN1C[C@H]2C[C@]3(C(=O)NCc4ccc(O)cc4)NC[C@H]2[C@H]1[C@H]3Cc1cccc2ccccc12 [IF-137]	< 5
NC(=O)C[C@@H]1[C@@H]2[C@@H]3CN[C@@]1(C(=O)NCc1ccccc1)C[C@@H]3CN2CC1CCCCC1 [IF-246]	10 to 30
CCCCCCNC(=O)C12NCC3CC1CN(CCC(C)C)C2C3CC(C)C (centres unmarked) [IB-551]	< 5
O=C(NCc1ccccc1)[C@@]12C[C@@H]3CN(Cc4cccc5ccccc45)[C@@H]([C@@H]3CN1)[C@H]2Cc1ccc(O)cc1 (relative stereo) [IF-505]	< 5
O=C(NCc1cccc2ccccc12)[C@@]12C[C@@H]3CN(Cc4ccccc4)[C@@H]([C@@H]3CN1)[C@H]2Cc1ccccc1 [IF-805]	10 to 30
CC(C)CC[C@@H]1[C@H]2CN[C@@]3(C(=O)NCc4ccccc4)[C@@H](C2)CN(CC(C)C)[C@@H]13 [IB-875]	10 to 30
O=C(NCCO)[C@@]12C[C@@H]3CN(Cc4ccccc4)[C@@H]([C@@H]3CN1)[C@H]2Cc1cccc2ccccc12 [IF-624]	10 to 30
CC(C)CC[C@@H]1[C@H]2CN[C@@]3(C(=O)NCc4cccc5ccccc45)[C@@H](C2)CN(CCC(=O)O)[C@@H]13 [IB-398]	10 to 30
CC(C)CNC(=O)[C@]12NC[C@H]3C[C@H]1CN(CCO)[C@H]2[C@@H]3Cc1cccc2ccccc12 [IB-621]	< 5
CC(C)CN1C[C@H]2C[C@]3(C(=O)NCc4ccccc4)NC[C@H]2[C@H]1[C@H]3CCc1ccccc1 (relative stereo) [IF-11]	10 to 30
CC(C)CCN1C[C@H]2C[C@]3(C(=O)NCc4ccccc4)NC[C@H]2[C@H]1[C@H]3CC(C)C [IF-733]	< 5
O=C(NCCO)[C@@]12C[C@@H]3CN(CC4CCCCC4)[C@@H]([C@@H]3CN1)[C@H]2Cc1ccccc1 [IF-486]	10 to 30
O=C(NCc1ccc(O)cc1)[C@@]12C[C@@H]3CN(Cc4ccccc4)[C@@H]([C@@H]3CN1)[C@H]2CCc1ccccc1 (relative stereo) [IF-565]	< 5
N=C(N)NCCC[C@@H]1[C@H]2CN[C@@]3(C(=O)NCc4ccc(F)cc4)[C@@H](C2)CN(Cc2ccccc2)[C@@H]13 [IB-250]	10 to 30
CC(C)C[C@@H]1[C@@H]2[C@@H]3CN[C@@]1(C(=O)NCc1cccc4ccccc14)C[C@@H]3CN2CCO (relative stereo) [IF-542]	< 5
CC(C)CCN1C[C@@H]2C[C@@H]3CN[C@]2(C(=O)NCc2ccc(F)cc2)[C@@H]1[C@@H]3Cc1ccc(O)cc1 [IB-481]	< 5
O=C(NCc1cccc2ccccc12)[C@@]12C[C@@H]3CN(CCO)[C@@H]([C@@H]3CN1)[C@H]2Cc1ccccc1 [IF-758]	< 5
CC(C)C[C@@H]1[C@H]2CN[C@@]3(C(=O)NCc4ccccc4)[C@@H](C2)CN(CCc2ccccc2)[C@@H]13 [IB-757]	< 5
CC(C)CC[C@@H]1[C@H]2CN[C@@]3(C(=O)NCCC(N)=O)[C@@H](C2)CN(Cc2ccccc2)[C@@H]13 [IB-274]	10 to 30

same assay, conditions: read-out: IC50

SMILES	IC50 [µM]
Cc1cccc(CNC(=O)[C@@]23C[C@@H]4CN(CC(C)C)[C@@H]([C@@H]4CN2)[C@H]3Cc2ccccc2)c1 (relative stereo) [IF-15]	17.1
CC(C)C[C@@H]1[C@@H]2CN[C@@]3(C(=O)NCCc4ccccc4)[C@@H](C2)CN(Cc2ccccc2)[C@@H]13 (relative stereo) [IB-12]	15.5
CC(C)CN1C[C@H]2C[C@]3(C(=O)NCc4ccccc4)NC[C@H]2[C@H]1[C@H]3CCc1ccccc1 (relative stereo) [IF-11]	17.5
